Where “and” joins values, the source holds several entries; their conditions need not be identical. Identical values can stand only once. Calls of active or inactive are those of the source. No rule for the calls is given here.

Chain of Neurotensin receptor type 1 (Homo sapiens) (P30989 whole entry, looked up): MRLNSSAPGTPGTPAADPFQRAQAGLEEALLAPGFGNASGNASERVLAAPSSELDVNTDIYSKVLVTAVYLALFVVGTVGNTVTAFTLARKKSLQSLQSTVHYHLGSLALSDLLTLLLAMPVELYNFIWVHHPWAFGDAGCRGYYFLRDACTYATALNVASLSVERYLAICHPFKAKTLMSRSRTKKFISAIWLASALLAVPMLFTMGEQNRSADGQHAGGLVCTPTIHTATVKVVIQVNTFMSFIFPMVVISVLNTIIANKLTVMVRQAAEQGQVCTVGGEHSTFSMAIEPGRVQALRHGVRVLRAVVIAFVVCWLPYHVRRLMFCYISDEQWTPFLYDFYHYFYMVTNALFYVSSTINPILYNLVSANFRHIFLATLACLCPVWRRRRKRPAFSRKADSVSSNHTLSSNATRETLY

This test addresses Neurotensin receptor type 1 (Homo sapiens) (UniProt P30989). As to the kind of experiment: neurotensin receptor 1 activation – imaging, image-based, set 3, SAR follow-up (AID 602356). Particulars: NTR1 image-based agonist assay, cellular imaging.
Turning to `Cc1ccc(-c2nnc3c4cc5c(cc4n(Cc4ccccc4)cc2-3)OCO5)cc1C`, the concentration for a half-maximal effect (EC50) is 1.44 µM.

For the compound `COc1ccc(-c2nnc3c4cc(OC)c(OC)cc4n(Cc4ccc(C)cc4)cc2-3)cc1`, the concentration giving a half-maximal response (EC50) is 5.21 µM.

Take `COc1ccc(Cn2cc3c(-c4ccc(F)cc4)nnc-3c3cc(OC)c(OC)cc32)cc1`: the concentration giving a half-maximal response (EC50) is 8.11 µM.

Take `COc1ccccc1-c1nc(C(=O)N[C@@H](CC(C)C)C(=O)O)cn1-c1ccncc1`: the EC50 was > 80 µM (inactive).

For the compound `COc1cc2c3nnc(-c4ccc(C)c(C)c4)c-3cn(Cc3ccc(C)cc3)c2cc1OC`, the concentration for a half-maximal effect (EC50) was 4.9 µM.

With `COc1ccc2c(N3CCN(c4ccccc4OC)CC3)nc(C3CCC3)nc2c1`, the EC50 entry is “inactive”.

As for `CC(C)C[C@H](NC(=O)c1cn(-c2ccnc3ccccc23)c(-c2ccccc2)n1)C(=O)O`, the EC50 is > 80 µM (inactive).

For the compound `COc1cc2nc(-c3ccccc3)nc(N3CCN(c4ccccc4)CC3)c2cc1OC`, the EC50 is > 80 µM (inactive).

As to `COc1ccccc1-c1cc(C(=O)N[C@@H](CC(C)C)C(=O)OC(C)(C)C)nn1-c1ccnc2cc(Cl)ccc12`, the EC50 was 5.01 µM.

Turning to `COc1cc2c3nnc(-c4ccc(F)cc4)c-3cn(Cc3cccc(C)c3)c2cc1OC`, the EC50 is 6.34 µM and 6.55 µM.

With `CCOc1cc2nc(-c3ccc(OC)c(OC)c3)nc(N3CCN(c4ccccc4)CC3)c2cc1OC`, the EC50 is > 80 µM (inactive).

On to `COc1cc2ncnc(N3CCN(c4ccccc4OC)CC3)c2cc1OC`, for which the EC50 is > 80 µM (inactive).

`COc1ccccc1N1CCN(c2nc(C3CCC3)nc3cc4c(cc23)OCO4)CC1`: the EC50 result was “inactive”.

For the compound `COc1ccc(-c2nnc3c4cc(OC)c(OC)cc4n(Cc4ccc(F)cc4)cc2-3)cc1`, the EC50 is > 80 µM (inactive).

Turning to `COc1cc2nc(CC3CC3)nc(N3CCN(c4ccccc4OC)CC3)c2cc1OC`, the EC50 was 14.2 µM.

Take `COc1cc2c3nnc(-c4ccc(C)cc4)c-3cn(Cc3ccccc3)c2cc1OC`: the EC50 entry is “inactive”.

Regarding `Cc1ccc(-c2nnc3c4cc5c(cc4n(Cc4ccccc4)cc2-3)OCO5)cc1`, the EC50 result is “inactive”.

For `COc1cc2c3nnc(-c4ccc(C)cc4)c-3cn(Cc3ccc(C)cc3)c2cc1OC`, the EC50 was 6.82 µM.

Turning to `CC(C)C[C@H](NC(=O)c1cn(-c2ccnc3cc(Cl)ccc23)c(-c2c(Cl)cccc2Cl)n1)C(=O)O`, the half-maximal effective concentration (EC50) was 5.17 µM.

As for `COc1cc2nc(C3CC3)nc(N3CCN(C(=O)c4ccccc4)CC3)c2cc1OC`, the EC50 entry is “inactive”.

Take `COc1cccc(OC)c1-c1cc(C(=O)N[C@@H](CC(C)C)C(=O)O)nn1-c1ccnc2cc(Cl)ccc12`: the EC50 was 0.232 µM.

Take `COc1cc2c3nnc(-c4ccc(F)cc4)c-3cn(Cc3ccc(C)cc3C)c2cc1OC`: the EC50 was 5.82 µM.

Turning to `COc1cc2c3nnc(-c4ccc(F)cc4)c-3cn(Cc3ccccn3)c2cc1OC`, the EC50 entry is “inactive”.

For the compound `COc1ccc(-c2nnc3c4ccccc4n(Cc4ccc(OC(F)(F)F)cc4)cc2-3)cc1`, the EC50 result is “inactive”.

As for `COc1cc2c3nnc(-c4ccc(Cl)cc4)c-3cn(Cc3ccccc3)c2cc1OC`, the half-maximal effective concentration (EC50) was 4.15 µM.

For `Cc1ccc(-c2nnc3c4cc5c(cc4n(Cc4ccc(F)cc4)cc2-3)OCO5)cc1`, the EC50 is 9.43 µM.

Consider `COc1cc2nc(C3CCCC3)nc(N3CCN(c4ccccc4OC)CC3)c2cc1OC`, for which the concentration for a half-maximal effect (EC50) was 5.79 µM.

With `CCn1cc2c(-c3ccc(F)cc3)nnc-2c2cc(OC)c(OC)cc21`, the EC50 is > 80 µM (inactive).

Regarding `COc1cc2nc(C3CCC3)nc(N3CCN(c4ccccc4)CC3)c2cc1OC`, the half-maximal effective concentration (EC50) was 12.1 µM.

In the case of `CCOc1ccc(-c2nnc3c4cc(OC)c(OC)cc4n(Cc4ccc(C)cc4)cc2-3)cc1`, the EC50 was 13 µM.

On to `COc1ccc(-c2nnc3c4ccccc4n(Cc4ccccc4)cc2-3)cc1`, for which the EC50 result was “inactive”.

On to `COc1ccc2nc(C3CC3)nc(N3CCN(c4ccccc4OC)CC3)c2c1`, for which the EC50 was 4.1 µM.

With `CC(C)C[C@H](NC(=O)c1cn(-c2ccnc3cc(Cl)ccc23)c(-c2ccccc2)n1)C(=O)O`, the EC50 entry was “inactive”.

`COc1ccc(-c2nnc3c4ccccc4n(Cc4ccncc4)cc2-3)cc1`: the EC50 is > 80 µM (inactive).

With `COc1cc2nc(-c3ccccc3)nc(N3CCN(c4ccc(Cl)cc4)CC3)c2cc1OC`, the EC50 is > 80 µM (inactive).

With `CCOc1cc2nc(-c3ccc(OC)c(OC)c3)nc(N3CCN(c4ccccc4F)CC3)c2cc1OC`, the EC50 was > 80 µM (inactive).

As for `COc1cc2nc(C3CCC3)nc(N3CCN(c4ccccc4[N+](=O)[O-])CC3)c2cc1OC`, the EC50 entry is “inactive”.

In the case of `COc1ccc(-c2nnc3c4ccccc4n(CCc4ccccc4)cc2-3)cc1`, the EC50 result was “inactive”.

Take `COc1cc2c3nnc(-c4ccc(F)cc4)c-3cn(Cc3ccc(N(C)C)cc3)c2cc1OC`: the EC50 is > 80 µM (inactive).

Take `COc1cc2c3nnc(-c4ccccc4)c-3cn(Cc3ccccc3)c2cc1OC`: the concentration for a half-maximal effect (EC50) was 19.9 µM.

Take `COc1ccc(N2CCN(c3nc(C4CCC4)nc4cc(OC)c(OC)cc34)CC2)c(OC)c1`: the EC50 result is “inactive”.

Turning to `COc1cc2nc(C3CC3)nc(N3CCN(c4ccccc4Cl)CC3)c2cc1OC`, the EC50 was 19.8 µM.

For the compound `Fc1ccc(-c2nnc3c4cc5c(cc4n(Cc4ccccc4)cc2-3)OCO5)cc1`, the EC50 is 10.9 µM.

Turning to `COc1cc2c3nnc(-c4ccc(F)cc4)c-3cn(Cc3ccccc3C)c2cc1OC`, the EC50 is 3.95 µM.

As to `COc1ccc2nc(C3CCC3)nc(N3CCN(c4ccccc4OC)CC3)c2c1`, the 50% effective concentration (EC50) is 10 µM.

As to `COc1ccc(N2CCN(c3nc(C4CCC4)nc4cc(OC)c(OC)cc34)CC2)cc1`, the EC50 result is “inactive”.

For `CCCc1nc(N2CCN(c3ccccc3OC)CC2)c2cc(OC)c(OC)cc2n1`, the EC50 is 16.6 µM.

Regarding `COc1cc2c3nnc(-c4ccc(F)cc4)c-3cn(Cc3ccc(Cl)cc3)c2cc1OC`, the 50% effective concentration (EC50) is 7.54 µM.

For `COc1ccc2c(c1)c1nnc(-c3ccc(F)cc3)c-1cn2Cc1ccc(C)cc1`, the EC50 is > 80 µM (inactive).

Regarding `COc1ccc2c(c1)c1nnc(-c3ccc(F)cc3)c-1cn2Cc1ccccc1`, the EC50 was 9.24 µM.

`COc1cccc(OC)c1-c1nc(C(=O)N[C@@H](CC(C)C)C(=O)O)cn1-c1cccc2ccccc12`: the EC50 is 2.31 µM and 4.47 µM.

For the compound `COc1ccc(-c2nnc3c4cc(OC)c(OC)cc4n(Cc4ccccc4)cc2-3)cc1`, the concentration giving a half-maximal response (EC50) is 17 µM.

With `COc1cc2nc(-c3ccccc3)nc(N3CCN(c4ccccc4F)CC3)c2cc1OC`, the EC50 is > 80 µM (inactive).

Take `COc1cc2c3nnc(-c4ccc(C)c(C)c4)c-3cn(Cc3ccccc3)c2cc1OC`: the half-maximal effective concentration (EC50) was 6.2 µM.

Regarding `COc1cc2c3nnc(-c4ccc(F)cc4)c-3cn(Cc3cccnc3)c2cc1OC`, the EC50 is > 80 µM (inactive).

In the case of `COc1ccccc1CN1CCN(c2nc(C3CC3)nc3cc(OC)c(OC)cc23)CC1`, the EC50 result was “inactive”.

For the compound `COc1cc2nc(C3CCC3)nc(N3CCN(c4ccccn4)CC3)c2cc1OC`, the EC50 entry was “inactive”.

On to `COc1ccc(-c2nnc3c4ccccc4n(Cc4ccc(F)cc4)cc2-3)cc1`, for which the EC50 entry is “inactive”.

On to `COc1cccc(OC)c1-c1nc(C(=O)NC2(C(=O)O)C3CC4CC(C3)CC2C4)cn1-c1ccnc2cc(Cl)ccc12` (stereo unspecified), for which the EC50 entry is “inactive”.

Turning to `COc1cc2nc(C(C)C)nc(N3CCN(c4ccccc4OC)CC3)c2cc1OC`, the 50% effective concentration (EC50) was 7.65 µM.

Take `COc1cc2nc(CC(C)C)nc(N3CCN(c4ccccc4OC)CC3)c2cc1OC`: the 50% effective concentration (EC50) is 15.1 µM.
